# Results published in US9169252B2 (BRISTOL-MYERS SQUIBB COMPANY, priority 2014, dated 2015).
# Where two headings read alike, the source gives them in different places.
# System: TLR2 induced IL-6 in peripheral blood mononuclear cells (PBMCs)
# Assay: PBMC TLR2 Induced IL-6 Assay
# Type: cell-based, human
# Details: IL-6 by ELISA; for IC50: read-out: Cell IC50; for EC50: read-out: Cell EC50
# Procedure: PBMC TLR2 Induced IL-6 Assay
# Peripheral blood mononuclear cells (PBMCs) were isolated from human blood containing the anti-coagulant EDTA (2.5 mM) by centrifugation over a FICOLL® gradient. PBMCs (250000 cells/well) were cultured in assay media (RPMI with 10% heat inactivated FCS) with compounds for 30 minutes at 37° C. in a 5% CO2 incubator. Following pretreatment with compounds, cells were stimulated for 5 hours with 10 µg/ml lipoteichoic acid (Invivogen, San Diego, Calif.), a TLR2 agonist. At the end of the culture, plates were centrifuged at 1800 rpm for 10 minutes to pellet the cells.
# [1] = Homo sapiens, PBMC, PBMC TLR2 Induced IL-6 Assay, lipoteichoic acid stimulation
# [2] = human PBMCs, lipoteichoic acid stimulated
# [3] = PBMC TLR2 Induced IL-6 Assay, lipoteichoic acid stimulation
# [4] = Homo sapiens, PBMC, human PBMCs, lipoteichoic acid stimulated
smiles,measurement,setting,value
CC(C)Nc1cc(-n2ncc3cc(C#N)cnc32)ncc1C(=O)N[C@H]1CC[C@H](NC(=O)[C@H](C)O)CC1 [Example 274],IC50,[1],204 nM
CC(C)(O)[C@H](F)CNC(=O)c1cnc(-n2ncc3cc(C#N)cnc32)cc1NC1CCC(F)C1 (stereo partly drawn) [Example 627],IC50,[2],7 nM
Cn1cc(Nc2cc(-n3ncc4cc(C#N)cnc43)ncc2C(=O)NC[C@@H](F)C(C)(C)O)cn1 [Example 387],IC50,[1],198 nM
"CC(C)(O)[C@H](F)CNC(=O)c1cnc(-n2ccc3cc(C#N)cnc32)cc1NC1CCCOC1 (single isomer, unassigned) [Example 8]",EC50,[3],695 nM
same,IC50,[3],695 nM
"CC(C)(O)[C@H](F)CNC(=O)c1cnc(-n2ccc3cc(C#N)cnc32)cc1N[C@@H]1COC[C@H]1F (single isomer, unassigned) [Example 458]",IC50,[4],260 nM
same,EC50,[2],261 nM
"CC(C)Nc1cc(-n2ccc3cc(C#N)ccc32)ncc1C(=O)N[C@H]1CC[C@H](C(C)(C)O)CC1 [Example 414, 6-(5-Cyano-1H-indol-1-yl)-N-((1R,4R)-4-(2-hydroxypropan-2-yl)cyclohexyl)-4-(isopropylamino)nicotinamide]",EC50,[4],188 nM
"CC(C)Nc1cc(-n2ncc3cc(O)cnc32)ncc1C(=O)NC[C@@H](F)C(C)(C)O [Example 153, (R)—N-(2-fluoro-3-hydroxy-3-methylbutyl)-6-(5-hydroxy-1H-pyrazolo[3,4-b]pyridin-1-yl)-4-(isopropylamino)nicotinamide]",EC50,[1],160 nM
"CC(C)(O)[C@H](F)CNC(=O)c1cnc(-n2ncc3cc(Cl)cnc32)cc1N[C@@H]1C[C@H]1CO (single isomer, unassigned) [Example 645]",IC50,[2],154 nM
CC(C)Nc1cc(-n2ccc3cc(CNC(=O)CC(C)(C)O)cnc32)ncc1C(=O)NC[C@@H](F)C(C)(C)O [Example 499],IC50,[4],213 nM
"CC(C)(O)[C@H](F)CNC(=O)c1cnc(-n2ccc3cc(C#N)cnc32)cc1NC1CCCC(F)(F)C1O (stereo partly drawn) [Example 111, 6-(5-cyano-1H-pyrrolo[2,3-b]pyridin-1-yl)-4-((3,3-difluoro-2-hydroxycyclohexyl)amino)-N—((R)-2-fluoro-3-hydroxy-3-methylbutyl) nicotinamide]",EC50,[1],238 nM
COC(C)(C)[C@H](F)CNC(=O)c1cnc(-n2ccc3cc(C#N)cnc32)cc1NC(C)C [Example 434],EC50,[4],57 nM
CC(C)Nc1cc(-n2ccc3cc(C#N)cnc32)ncc1C(=O)NC1CCC(C(C)(O)C2CC2)CC1 (stereo not drawn) [Example 444],EC50,[2],186 nM
"CC(C)Nc1cc(-n2ccc3cc(C#N)cnc32)ncc1C(=O)N[C@H]1CC[C@](O)(c2ccnn2C)CC1 [Example 173, 6-(5-Cyano-1H-pyrrolo[2,3-b]pyridin-1-yl)-N-((1s,4s)-4-hydroxy-4-(1-methyl-1H-pyrazol-5-yl)cyclohexyl)-4-(isopropylamino)nicotinamide]",EC50,[1],81 nM
same,IC50,[1],242 nM
"CC(C)(O)[C@H](F)CNC(=O)c1cnc(-n2ncc3cc(F)cnc32)cc1NC1CCC(O)C1 (single isomer, unassigned) [Example 610]",EC50,[2],166 nM
same,IC50,[2],217 nM
CC(C)Nc1cc(-n2ccc3cc(C#N)cnc32)ncc1C(=O)NC1CCC(C(C)(O)C2CC2)CC1 (stereo not drawn) [Example 446],EC50,[2],51 nM
"CC(O)CCNc1cc(-n2ncc3cc(C#N)cnc32)ncc1C(=O)NC[C@@H](F)C(C)(C)O (single isomer, unassigned) [Example 573]",EC50,[4],729 nM
same,IC50,[2],270 nM
CC(C)(O)[C@H](F)CNC(=O)c1cnc(-n2ncc3cc(C#N)cnc32)cc1Nc1ccc(C#N)cc1 [Example 523],EC50,[4],24 nM
"CC(C)(O)[C@H](F)CNC(=O)c1cnc(-n2ncc3cc(Cl)cnc32)cc1N[C@@H]1C[C@H]1CO (single isomer, unassigned) [Example 646]",IC50,[2],393 nM
"CNC(=O)[C@H]1CC[C@H](NC(=O)c2cnc(-n3ccc4cc(C#N)cnc43)cc2NC2CCOCC2)CC1 [Example 86, 6-(5-cyano-1H-pyrrolo[2,3-b]pyridin-1-yl)-N-((trans)-4-(methylcarbamoyl)cyclohexyl)-4-((tetrahydro-2H-pyran-4-yl)amino)nicotinamide]",EC50,[1],110 nM
"CC(C)(O)[C@H](F)CNC(=O)c1cnc(-n2ccc3cc(C#N)cnc32)cc1NC1CCC(O)C1 (single isomer, unassigned) [Example 25]",EC50,[3],22 nM
"CC(C)(O)[C@H](F)CNC(=O)c1cnc(-n2ncc3cc(Cl)cnc32)cc1NC1CCOCC1 [Example 135, (R)-6-(5-chloro-1H-pyrazolo[3,4-b]pyridin-1-yl)-N-(2-fluoro-3-hydroxy-3-methylbutyl)-4-((tetrahydro-2H-pyran-4-yl)amino) nicotinamide]",EC50,[1],168 nM
"CC(C)Nc1cc(-n2cnc3cncnc32)ncc1C(=O)NC[C@@H](F)C(C)(C)O [Example 170, (R)—N-(2-Fluoro-3-hydroxy-3-methylbutyl)-4-(isopropylamino)-6-(9H-purin-9-yl) nicotinamide]",EC50,[1],423 nM
"CC(C)(O)[C@H](F)CNC(=O)c1cnc(-n2ncc3cncnc32)cc1NC1CC1 [Example 134, (R)-4-(cyclopropylamino)-N-(2-fluoro-3-hydroxy-3-methylbutyl)-6-(1H-pyrazolo[3,4-d]pyrimidin-1-yl)nicotinamide]",EC50,[1],282 nM
"COc1cccc(Nc2cc(-n3ccc4cc(C#N)cnc43)ncc2C(=O)NC[C@@H](F)C(C)(C)O)c1 [Example 51, (R)-6-(5-cyano-1H-pyrrolo[2,3-b]pyridin-1-yl)-N-(2-fluoro-3-hydroxy-3-methylbutyl)-4-((3-methoxyphenyl)amino)nicotinamide]",EC50,[1],65 nM
"CC(C)(O)[C@H](F)CNC(=O)c1cnc(-n2ccc3cc(C#N)cnc32)cc1N[C@@H]1COC[C@H]1F (single isomer, unassigned) [Example 459]",EC50,[2],95 nM
same,IC50,[2],343 nM
"CC(C)(O)[C@H](F)CNC(=O)c1cnc(-n2ncc3cc(Cl)cnc32)cc1NC1CC1 [Example 136, (R)-6-(5-chloro-1H-pyrazolo[3,4-b]pyridin-1-yl)-4-(cyclopropylamino)-N-(2-fluoro-3-hydroxy-3-methylbutyl)nicotinamide]",EC50,[1],133 nM
"CC(C)Nc1cc(-n2ccc3cc(C#N)cnc32)ncc1C(=O)N[C@H]1CC[C@H]([N+](=O)[O-])CC1 [Example 95, 6-(5-cyano-1H-pyrrolo[2,3-b]pyridin-1-yl)-4-(isopropylamino)-N-((trans)-4-nitrocyclohexyl)nicotinamide]",EC50,[1],408 nM
[2H]C([2H])([2H])OC(C)(C)[C@H](F)CNC(=O)c1cnc(-n2ccc3cc(C#N)cnc32)cc1NC(C)C [Example 442],EC50,[4],42 nM
CC(C)(O)[C@H](F)CNC(=O)c1cnc(-n2ncc3cc(C#N)cnc32)cc1N[C@@H]1CCN(c2ncc(F)cn2)C1 [Example 534],IC50,[4],824 nM
same,EC50,[2],59 nM
"CC(O)CCNc1cc(-n2ncc3cc(C#N)cnc32)ncc1C(=O)NC[C@@H](F)C(C)(C)O (single isomer, unassigned) [Example 572]",IC50,[4],303 nM
CC(C)(O)[C@H](F)CNC(=O)c1cnc(-n2ccc3cc(C(N)=O)cnc32)cc1NCC1CNC1 [Example 475],EC50,[4],305 nM
same,IC50,[4],1180 nM
CC(C)(O)[C@H](F)CNC(=O)c1cnc(-n2ncc3cc(C#N)cnc32)cc1NC1CCC(F)C1 (stereo partly drawn) [Example 625],IC50,[2],210 nM
"CC(C)(O)[C@H](F)CNC(=O)c1cnc(-n2ccc3cc(C#N)cnc32)cc1NC1CCCOC1 (single isomer, unassigned) [Example 7]",EC50,[1],477 nM
same,IC50,[1],477 nM
